According to US20230416168A1 (EUROCHEM ANTWERPEN, priority 2020, published 2023):
Where two headings read alike, the source gives them in different places.

What was measured:
Nitrosospira multiformis = test: Nitrification inhibition assay with Nitrosospira multiformis (nitrite level after 24 h); format: cell-based; conditions: for activity at 50 µM / IC50 / activity at 100 µM: Nitrosospira multiformis; for activity at 50 µM: tested concentration 50 μM; for activity at 50 µM / activity at 100 µM: 24 h, read-out: Nitrification at tested concentration (0 = maximum activity)
Experimental: (§1) The compounds of formula (I) and (II) and (III)/(IV) were tested for their nitrification inhibition effect in two screens, using assays with the nitrifying bacteria N. europaea and N. multiformis. In practice, ammonium and candidate nitrification inhibitors (at 100 μM) were added to a dense bacterial culture in multiwell culture plates and after 24 h of incubation, the nitrite level was measured. To normalize for differences between batches of cultures and multiwell culture plates, for each well a relative nitrification was calculated that was normalized towards both the negative and positive controls (see “Material and Methods” below for full details).
(§2) Nitrite (NO2−) was measured using the Griess reagent (Product number: G4410, Griess reagent (modified), Sigma-Aldrich). Equal volumes of the sample or a diluted sample and the Griess reagent were mixed a transparent flat bottom multi-well plate and incubated in the dark at room temperature for 10 minutes. Absorbance values at 540 nm were measured spectrophotometrically (EnVision, Perkin Elmer®) and used to calculate the [NO2−] by use of a standard curve.
Cultures were first 5 times overconcentrated in fresh 181-medium by centrifugation (4000 rpm, 15 min, 5° C.) in 50 mL centrifuge tubes (Cat. No. 430829, CentriStar™ Conical Centrifuge Tubes, Corning®). Per batch, all the cultures were pooled in one sterile Schott bottle and subsequently dispensed in 384-well plates (Cat. No. 781086, CELLSTAR® plate, Greiner BioOne; 50 μl/well) by use of a dispenser (Multidrop™ Combi Reagent Dispenser, Thermo Scientific™) that was first flushed with 181-medium. 0.5 μl of 99.99% DMSO (negative control—final concentration […] was added to the outer two columns on the left side of the plate and 0.5 μl of 10 mM DMP (3,4-dimethylpyrazole, positive control—final concentration 100 μM) was added to the outer two columns on the right side manually. Finally, 0.5 μl of candidate nitrification inhibitors (5 mM stock solutions in 99.99% DMSO—final concentration 50 μM) were added to the central wells using a pin tool on a Tecan robot (Freedom EVO®, Tecan). In between additions, the pins were washed in sequence with 99.5% DMSO, MilliQ water and 100% ethanol and air-dried. All plates were separately wrapped in Parafilm. Stacks of 4 plates were put on top of a 96-well plate filled with 100 μl MilliQ per well, covered with aluminum foil and shaken (±150 rpm) at 30° C. 24 h later, NO2− production was assessed. For this, the samples were first 100 times diluted by pipetting 3 μl of samples into 300 μl fresh growth medium in intermediate plates (Cat. No. 353077, Falcon® 96-well Clear Round Bottom Microplate, Corning®) to then mix 15 μl of the diluted samples with 15 μl Griess reagent in the wells of a transparent, flat bottom 384-well plate (Cat. No. X^7001, Low Profile Microplate, Molecular Devices) that was measured spectrophotometrically at 540 nm (EnVision, Perkin Elmer®).
(§3) To assess the efficacy of the compounds (in terms of nitrification inhibition) and to enable comparison between plates and batches of cultures, we calculated the relative nitrification. More in detail, all nitrite results were normalized towards both a negative control, containing no compound, and a positive control, containing the benchmark (100 μM DMP), using Equation 1. This normalization was done per multi-well plate and each plate contained 32 positive and 32 negative controls.
IC50 values, that is the concentration that inhibits 50% of the nitrification, were calculated after fitting a logistic curve to 8-point dose response data, using doses between 2 and 100 μM with 1.75 fold steps. If a concentration of 2 μM already inhibited nitrification, the IC50 value could not be calculated. In that case, IC50 values represent the dose that gives inhibition closest to 50%.
The compounds of formula (I) and (II) were tested for their nitrification inhibition effect in two screens, using assays with the nitrifying bacteria N. europaea and N. multiformis. […]

Nitrosomonas europaea = test: Nitrification inhibition assay with Nitrosomonas europaea (nitrite level after 24 h); format: cell-based; conditions: for activity at 50 µM / IC50 / activity at 100 µM: Nitrosomonas europaea; for activity at 50 µM: tested concentration 50 μM; for activity at 50 µM / activity at 100 µM: 24 h, read-out: Nitrification (%) at tested concentration (0 = maximum activity)
Experimental: as §1, §2
To prepare a high-throughput nitrification inhibition assay using N. europaea, late-log phase cultures were subcultivated two days before the assay. Just before the assay, the cultures were 5 times overconcentrated with fresh growth medium after centrifugation (4000 rpm, 15 min, 5° C.) in 50 mL centrifuge tubes (Cat. No. 430829, CentriStar™ Conical Centrifuge Tubes, Corning®). Per batch, all the cultures were pooled in one sterile Schott bottle and subsequently dispensed into 384-well plates (Cat. No. 781086, CELL-STAR® plate, Greiner Bio-One; 50 μl/well) by use of a dispenser (Multidrop™ Combi Reagent Dispenser, Thermo Scientific™) that was first flushed with growth medium. Specifically for the high-throughput screen for new nitrification inhibitors, 0.5 μl of 99.99% DMSO (negative control—final concentration 1%) was added to the outer two columns on the left side of the plate and 0.5 μl of 10 mM DMP (3,4-dimethylpyrazole, positive control—final concentration 100 μM) was added to the outer two columns on the right side manually. Finally, 0.5 μl of candidate nitrification inhibitors (5 mM stock solutions in 99.99% DMSO—final concentration 50 μM) were added to the central wells using a pin tool on a Tecan robot (Freedom EVO®, Tecan). In between additions, the pins were washed in sequence with 99.5% DMSO, MilliQ water and 100% ethanol and air-dried. All plates were separately wrapped in Parafilm. Stacks of 4 plates were put on top of a 96-well plate filled with 100 μl MilliQ per well, covered with aluminum foil and shaken at 150 rpm at 28° C. 24 h later, NO2− production was assessed. For this, the samples were first 200 times diluted by pipetting 1.5 μl of samples into 300 μl of fresh growth medium in intermediate plates (Cat. No. 353077, Falcon® 96-well Clear Round Bottom Microplate, Corning®), to then mix 15 μl of the diluted samples with 15 μl Griess reagent in the wells of a transparent, flat bottom 384-well plate (Cat. No. X^7001, Low Profile Microplate, Molecular Devices) that was measured spectrophotometrically at 540 nm (EnVision, Perkin Elmer®).
as §3
IC50 values, that is the concentration that inhibits 50% of the nitrification, were calculated after fitting a logistic curve to 8-point dose response data, using doses between 2 and 100 μM with 1.75 fold steps. […]

[1] = normalized to DMSO (100%) and 100 μM DMP (0%)
[2] = 8-point dose response, 2 to 100 μM, read-out: IC50
[3] = tested concentration 100 μM, normalized to DMSO (100%) and 100 μM DMP (0%)

SMILES | IC50 (Nitrosospira multiformis; [2]) [µM] | IC50 (Nitrosomonas europaea; [2]) [µM] | activity at 100 µM (Nitrosospira multiformis; [3]) [%] | activity at 100 µM (Nitrosomonas europaea; [3]) [%] | also measured
CCn1c(CSC2=NCCS2)nc2cc(F)ccc21 [Example 13] | – | – | – | – | activity at 50 µM (Nitrosospira multiformis; [1]): 0%; activity at 50 µM (Nitrosomonas europaea; [1]): 73%
COc1ccccc1Nc1nc(N)nc(CSC2=NCCS2)n1 [Example 20] | – | – | – | – | activity at 50 µM (Nitrosospira multiformis; [1]): 42%; activity at 50 µM (Nitrosomonas europaea; [1]): 79%
S=c1[nH]cco1 [Example 40] | 3 | 4 | 0 | 0 | –
COc1cc(C(=O)CSC2=NCCS2)cc(OC)c1OC [Example 15] | – | – | – | – | activity at 50 µM (Nitrosospira multiformis; [1]): 13%; activity at 50 µM (Nitrosomonas europaea; [1]): 78%
COc1cccc(-c2nc(CSC3=NCCS3)cs2)c1OC [Example 12] | < 20 | < 100 | 11 | 0 | –
O=C1NCCS1 [Example 8] | < 100 | < 100 | 31 | 47 | –
CC1CNC(=S)S1 (centres unmarked) [Example 4] | – | – | – | – | IC50 (Nitrosospira multiformis): < 2 µM; activity at 100 µM (Nitrosospira multiformis): 0%; IC50 (Nitrosomonas europaea): < 2 µM; activity at 100 µM (Nitrosomonas europaea): 0%
CSC1=NCCO1 [Example 41] | – | – | – | – | IC50 (Nitrosospira multiformis): > 100 µM; activity at 100 µM (Nitrosospira multiformis): 68%; IC50 (Nitrosomonas europaea): > 100 µM; activity at 100 µM (Nitrosomonas europaea): 88%
S=C1NC(c2ccccc2)CO1 (centres unmarked) [Example 42] | < 57 | 68 | 12 | 40 | –
Cc1csc(=S)[nH]1 [Example 26, 4-methyl-1,3-thiazole-2-thiol] | 2.1 | 38 | 0 | 0 | Average nitrification [%] in Nitrosospira multiformis (Nitrosospira multiformis; 2 μM): 51%; Average nitrification [%] in Nitrosospira multiformis (Nitrosospira multiformis; 3.5 μM): 27%; Average nitrification [%] in Nitrosospira multiformis (Nitrosospira multiformis; 6 μM): 6%; Average nitrification [%] in Nitrosospira multiformis (Nitrosospira multiformis; 11 μM): 2%; Average nitrification [%] in Nitrosospira multiformis (Nitrosospira multiformis; 19 μM): 0%; Average nitrification [%] in Nitrosospira multiformis (Nitrosospira multiformis; 33 μM): 0%; Average nitrification [%] in Nitrosospira multiformis (Nitrosospira multiformis; 57 μM): 0%; Average nitrification [%] in Nitrosospira multiformis (Nitrosospira multiformis; 100 μM): 0%; Average nitrification [%] in Nitrosomonas europaea (Nitrosomonas europaea; 2 μM): 91%; Average nitrification [%] in Nitrosomonas europaea (Nitrosomonas europaea; 3.5 μM): 84%; Average nitrification [%] in Nitrosomonas europaea (Nitrosomonas europaea; 6 μM): 80%; Average nitrification [%] in Nitrosomonas europaea (Nitrosomonas europaea; 11 μM): 83%; Average nitrification [%] in Nitrosomonas europaea (Nitrosomonas europaea; 19 μM): 78%; Average nitrification [%] in Nitrosomonas europaea (Nitrosomonas europaea; 33 μM): 71%; Average nitrification [%] in Nitrosomonas europaea (Nitrosomonas europaea; 57 μM): 50%; Average nitrification [%] in Nitrosomonas europaea (Nitrosomonas europaea; 100 μM): 0%
Cc1cccc(CSC2=NCCS2)c1 [Example 17] | – | – | – | – | activity at 50 µM (Nitrosospira multiformis; [1]): 36%; activity at 50 µM (Nitrosomonas europaea; [1]): 100%
Cc1csc(SC2CCCCC2)n1 [Example 38] | > 100 | > 100 | 53 | 92 | –
Cc1[nH]c(=S)sc1C [Example 35] | 3 | 43 | 0 | 12 | –

Further lines, with some results ahead:

IC50 (Nitrosospira multiformis; [2]) [µM] | IC50 (Nitrosomonas europaea; [2]) [µM] | SMILES | activity at 100 µM (Nitrosospira multiformis; [3]) [%] | activity at 100 µM (Nitrosomonas europaea; [3]) [%] | also measured
> 100 | > 100 | CSc1ncc(Br)s1 [Example 33] | 64 | 68 | –
< 20 | – | O=C(CSC1=NCCS1)NCc1cc(Br)cs1 [Example 11] | 0 | – | –
44 | > 100 | NCCCSc1nccs1 [Example 37] | 7 | 58 | –
> 100 | 28 | CSc1nc(N)c(C#N)s1 [Example 29] | 61 | 0 | –
24 | 2 | C=CC1CNC(=S)O1 (centres unmarked) [Example 44] | 0 | 0 | –
12 | > 100 | S=c1[nH]cc(Cc2ccccc2)s1 [Example 28] | 0 | 65 | –
16 | 14 | Oc1csc(=S)[nH]1 [Example 31] | 11 | 12 | –
49 | 16 | S=c1[nH]c(C2CCCCC2)cs1 [Example 36] | 15 | 0 | –
< 2 | < 2 | CCN(CN1CCSC1=S)C1CC1 [Example 2] | 0 | 0 | –
36 | 42 | S=c1[nH]c(-c2ccccc2)cs1 [Example 30] | 0 | 21 | –
11 | 52 | S=c1[nH]c(C2CC2)cs1 [Example 34] | 0 | 0 | –
< 2 | < 3.5 | CC1CSC(=S)N1 (centres unmarked) [Example 3] | 0 | 0 | –
20 | 7 | CC1(C)COC(=S)N1 [Example 43] | 0 | 0 | –
< 20 | < 57 | CC1CSC(SCc2cc(=O)n3ccsc3n2)=N1 (centres unmarked) [Example 14] | 0 | 0 | –
> 100 | < 100 | CSc1nc(Br)cs1 [Example 32] | 75 | 46 | –
> 100 | > 100 | CCSc1nc(CC(=O)O)cs1 [Example 27] | 77 | 62 | –
